Where “and” joins values, the source holds several entries; their conditions need not be identical. Identical values can stand only once. Like-named read-outs stand apart in the source and are kept apart here.
Assay: Pharmacokinetics after intra-duodenal injection (ID) in anesthetized rats, model mimicking enteric-coated oral dosage form, plasma LC-MS
Format: in vivo, rat
Details: for Total mean A(1-7) exposure over the observation period: ID; for level at 0 h / level at 10 min / level at 20 min / level at 40 min / level at 1 h / level at 1.5 h / level at 5 min: read-out: Angiotensin (1-7) concentration
Experimental: This model mimics the release and absorption expected from an orally delivered enteric coated solid dosage form such as capsule or tablet.
After extraction, the samples were then transferred to ice-cold tubes containing a protease inhibitor cocktail. The samples were kept on ice until they were centrifuged at 4° C. to obtain plasma. The plasma supernatants were then frozen −70° C. until analysis using an LC-MS assay.
The oral delivery of an angiotensin (1-7) peptide (e.g., TXA127) was then evaluated in a rat model that mimics the release of the peptide into the intestine by enteric-coated capsule. Briefly, the duodenums of anesthetized rats were surgically exposed, and an angiotensin (1-7) peptide was delivered through a 27 gauge needle into the duodenum. A baseline was obtained by ID administration of an angiotensin (1-7) in PBS. Samples of blood was removed from the carotid artery before and 5, 10, 20, 40, 60 and 90 minutes after peptide administration. Subsequently, an angiotensin (1-7) peptide was administered ID in 400 mM citrate buffer (pH 3.5) and lauroyl-L-carnitine (LLC) (10 mg/ml), a formulation that mimics the contents of the enteric-coated capsules. In order to maximize the stability of TXA127 in rat circulation, captopril (e.g., 0.5 mg/ml or 5 mg/ml) may be added to the formulations. Blood samples were taken at the same time points as the baseline study and handled as described above for analysis.

[1] = ID 0.3 ml A [10 mg/ml in PBS], individual rats
[2] = ID 0.3 ml B [10 mg/ml, 10 mg/ml LLC, 400 mM Citrate pH 3.5, 150 mM NaCl], individual rats
[3] = ID 0.3 ml C [10 mg/ml, Captopril 0.5 mg/ml, 10 mg/ml LLC, 400 mM Citrate pH 3.5, 150 mM NaCl], individual rats
[4] = ID 0.3 ml C [10 mg/ml, Captopril 5 mg/ml, 10 mg/ml LLC, 400 mM Citrate pH 3.5, 150 mM NaCl], individual rats

Compound: CC[C@H](C)[C@H](NC(=O)[C@H](Cc1ccc(O)cc1)NC(=O)[C@@H](NC(=O)[C@H](CCCNC(=N)N)NC(=O)[C@@H](N)CC(=O)O)C(C)C)C(=O)N[C@@H](Cc1c[nH]cn1)C(=O)N1CCC[C@H]1C(=O)O [Angiotensin (1-7), Asp^1-Arg^2-Val^3-Tyr^4-Ile^5-His^6-Pro^7]
- AUC0-90 [1]: 123 ng·min/mL and 881 ng·min/mL and 181 ng·min/mL and 456 ng·min/mL and 166 ng·min/mL and 616 ng·min/mL
- Cmax [1]: 3.44 ng/mL and 15 ng/mL and 4 ng/mL and 9 ng/mL and 3 ng/mL and 10.4 ng/mL
- Half-Life [1]: 51 min and 140 min and 23 min and 7 min
- Angiotensin (1-7) concentration (ID 0.3 ml A [10 mg/ml in PBS], time point 0 min (before administration), individual rats): 0.23 ng/mL and 0.0 ng/mL and 1.54 ng/mL and 1.00 ng/mL and 1.84 ng/mL and 5.81 ng/mL
- Angiotensin (1-7) concentration (ID 0.3 ml A [10 mg/ml in PBS], time point 5 min, individual rats): 0.84 ng/mL and 12.3 ng/mL and 0.94 ng/mL and 0.88 ng/mL and 0.891 ng/mL and 9.24 ng/mL
- Angiotensin (1-7) concentration (ID 0.3 ml A [10 mg/ml in PBS], time point 10 min, individual rats): 3.44 ng/mL and 6.38 ng/mL and 1.08 ng/mL and 0.99 ng/mL and 1.12 ng/mL and 4.08 ng/mL
- Angiotensin (1-7) concentration (ID 0.3 ml A [10 mg/ml in PBS], time point 20 min, individual rats): 0.62 ng/mL and 13.3 ng/mL and 1.91 ng/mL and 1.79 ng/mL and 1.80 ng/mL and 2.05 ng/mL
- Angiotensin (1-7) concentration (ID 0.3 ml A [10 mg/ml in PBS], time point 40 min, individual rats): 0.27 ng/mL and 15.4 ng/mL and 1.22 ng/mL and 4.14 ng/mL and 1.30 ng/mL and 3.89 ng/mL
- Angiotensin (1-7) concentration (ID 0.3 ml A [10 mg/ml in PBS], time point 60 min, individual rats): 1.55 ng/mL and 6.27 ng/mL and 3.97 ng/mL and 8.75 ng/mL and 3.07 ng/mL and 10.4 ng/mL
- Angiotensin (1-7) concentration (ID 0.3 ml A [10 mg/ml in PBS], time point 90 min, individual rats): 2.61 ng/mL and 7.19 ng/mL and 0.78 ng/mL and 7.54 ng/mL and 1.23 ng/mL and 10.4 ng/mL
- AUC0-90 [2]: 19,502.2 ng*min/mL and 1,777.5 ng*min/mL and 422.8 ng*min/mL and 1,168.2 ng*min/mL and 2,100.6 ng*min/mL and 669.9 ng*min/mL
- Cmax [2]: >1000 ng/mL and 259.0 ng/mL and 19.3 ng/mL and 89.7 ng/mL and 60.7 ng/mL and 56.4 ng/mL
- Half-Life [2]: 9.3 min and 173.3 min and 23.8 min and 25.2 min and 21.6 min and 25.0 min
- Angiotensin (1-7) concentration (ID 0.3 ml B [10 mg/ml, 10 mg/ml LLC, 400 mM Citrate pH 3.5, 150 mM NaCl], time point 0 min (before administration), individual rats): 1.46 ng/mL
- Angiotensin (1-7) concentration (ID 0.3 ml B [10 mg/ml, 10 mg/ml LLC, 400 mM Citrate pH 3.5, 150 mM NaCl], time point 5 min, individual rats): >1000 ng/mL and 259 ng/mL and 3.48 ng/mL and 89.7 ng/mL and 60.7 ng/mL and 56.38 ng/mL
- Angiotensin (1-7) concentration (ID 0.3 ml B [10 mg/ml, 10 mg/ml LLC, 400 mM Citrate pH 3.5, 150 mM NaCl], time point 10 min, individual rats): >1000 ng/mL and 21 ng/mL and 19.3 ng/mL and 15.2 ng/mL and 59.6 ng/mL and 17.92 ng/mL
- Angiotensin (1-7) concentration (ID 0.3 ml B [10 mg/ml, 10 mg/ml LLC, 400 mM Citrate pH 3.5, 150 mM NaCl], time point 20 min, individual rats): 59.9 ng/mL and 7.35 ng/mL and 6.02 ng/mL (2×) and 18.4 ng/mL and 51.2 ng/mL
- Angiotensin (1-7) concentration (ID 0.3 ml B [10 mg/ml, 10 mg/ml LLC, 400 mM Citrate pH 3.5, 150 mM NaCl], time point 40 min, individual rats): 4.88 ng/mL and 5.6 ng/mL and 2.32 ng/mL and 5.05 ng/mL and 11.7 ng/mL and 1.11 ng/mL
- Angiotensin (1-7) concentration (ID 0.3 ml B [10 mg/ml, 10 mg/ml LLC, 400 mM Citrate pH 3.5, 150 mM NaCl], time point 60 min, individual rats): 4.74 ng/mL and 1.7 ng/mL and 3.99 ng/mL and 6.36 ng/mL and 10.9 ng/mL and 3.48 ng/mL
- Angiotensin (1-7) concentration (ID 0.3 ml B [10 mg/ml, 10 mg/ml LLC, 400 mM Citrate pH 3.5, 150 mM NaCl], time point 90 min, individual rats): 3.93 ng/mL and 3.99 ng/mL and 1.11 ng/mL and 4.43 ng/mL and 4.74 ng/mL and 3.39 ng/mL
- AUC0-90 [3]: 9,257 ng*min/mL and 20,442 ng*min/mL and 7,394 ng*min/mL and 2,252 ng*min/mL (2×) and 6,495 ng*min/mL
- Cmax [3]: 879.0 ng/mL and >1000 ng/mL and 468.0 ng/mL and 83.0 ng/mL (2×) and 735.0 ng/mL
- Half-Life [3]: 11.9 min and 29.1 min and 13.9 min and 18.3 min (2×) and 17.9 min
- Angiotensin (1-7) concentration (ID 0.3 ml C [10 mg/ml, Captopril 0.5 mg/ml, 10 mg/ml LLC, 400 mM Citrate pH 3.5, 150 mM NaCl], time point 0 min (before administration), Average): 1.1 ng/mL
- AUC0-90 [4]: 26,654 ng*min/mL and 1,008 ng*min/mL and 7,641 ng*min/mL and 10,668 ng*min/mL and 6,228 ng*min/mL and 3,862 ng*min/mL
- Cmax [4]: <1000 ng/mL and 33.5 ng/mL and 504 ng/mL and 746.0 ng/mL and 391.25 ng/mL and 432.85 ng/mL
- Half-Life [4]: 10.55 min and 7.97 min and 15.45 min and 11.94 min and 12.86 min and 25.62 min
- Angiotensin (1-7) concentration (ID 0.3 ml C [10 mg/ml, Captopril 5 mg/ml, 10 mg/ml LLC, 400 mM Citrate pH 3.5, 150 mM NaCl], time point 0 min (before administration), Average): 2.42 ng/mL
- Total mean A(1-7) exposure over the observation period (0.3 mL of 10 mg/mL A(1-7) formulated in PBS, 6 rats): 403 ng·min/mL
- Total mean A(1-7) exposure over the observation period (0.3 mL of 10 mg/mL A(1-7) with 0.5 mg/mL captopril (as printed in the text on Table 5), 10 mg/mL LLC, 400 mM Citrate, 150 mM NaCl pH 3.5, six rats): 9,399 ng*min/mL
- Total mean A(1-7) exposure over the observation period (0.3 mL of 10 mg/mL A(1-7) with 0.5 mg/mL captopril, 10 mg/mL LLC, 400 mM Citrate, 150 mM NaCl pH 3.5, seven rats (Table 4)): 7,152 ng*min/mL
- Total mean A(1-7) exposure over the observation period (0.3 mL of 10 mg/mL A(1-7) with 10 mg/mL LLC, 400 mM Citrate, 150 mM NaCl pH 3.5): 4,274 ng*min/mL
- Half-life and total exposure compared to the baseline profile of angiotensin (1-7) delivered in PBS (formulation according to the invention (citrate, LLC, with or without captopril), rat model mimicking oral delivery): significantly improved half-life and total exposure
- level at 0 h (rat, plasma, 3 mg per rat, pH 3.5, ID 0.3 ml B [10 mg/ml, 10 mg/ml LLC, 400 mM Citrate pH 3.5, 150 mM NaCl], time point 0 min (before administration), Average): 1.51 ng/mL
- level at 10 min (rat, plasma, 3 mg per rat, pH 3.5, ID 0.3 ml B [10 mg/ml, 10 mg/ml LLC, 400 mM Citrate pH 3.5, 150 mM NaCl], time point 10 min, Average): 204 ng/mL
- level at 20 min (rat, plasma, 3 mg per rat, pH 3.5, ID 0.3 ml B [10 mg/ml, 10 mg/ml LLC, 400 mM Citrate pH 3.5, 150 mM NaCl], time point 20 min, Average): 24.8 ng/mL
- level at 40 min (rat, plasma, 3 mg per rat, pH 3.5, ID 0.3 ml B [10 mg/ml, 10 mg/ml LLC, 400 mM Citrate pH 3.5, 150 mM NaCl], time point 40 min, Average): 5.11 ng/mL
- level at 1 h (rat, plasma, 3 mg per rat, pH 3.5, ID 0.3 ml B [10 mg/ml, 10 mg/ml LLC, 400 mM Citrate pH 3.5, 150 mM NaCl], time point 60 min, Average): 5.2 ng/mL
- level at 1.5 h (rat, plasma, 3 mg per rat, pH 3.5, ID 0.3 ml B [10 mg/ml, 10 mg/ml LLC, 400 mM Citrate pH 3.5, 150 mM NaCl], time point 90 min, Average): 3.6 ng/mL
- level at 0 h (rat, plasma, 3 mg, ID 0.3 ml A [10 mg/ml in PBS], time point 0 min (before administration), Average): 1.74 ng/mL
- level at 5 min (rat, plasma, 3 mg, ID 0.3 ml A [10 mg/ml in PBS], time point 5 min, Average): 4.18 ng/mL
- level at 10 min (rat, plasma, 3 mg, ID 0.3 ml A [10 mg/ml in PBS], time point 10 min, Average): 2.85 ng/mL
- level at 20 min (rat, plasma, 3 mg, ID 0.3 ml A [10 mg/ml in PBS], time point 20 min, Average): 3.58 ng/mL
- level at 40 min (rat, plasma, 3 mg, ID 0.3 ml A [10 mg/ml in PBS], time point 40 min, Average): 4.37 ng/mL
- level at 1 h (rat, plasma, 3 mg, ID 0.3 ml A [10 mg/ml in PBS], time point 60 min, Average): 5.67 ng/mL
- level at 1.5 h (rat, plasma, 3 mg, ID 0.3 ml A [10 mg/ml in PBS], time point 90 min, Average): 4.96 ng/mL
- level at 5 min (rat, plasma, 3 mg, pH 3.5, ID 0.3 ml B [10 mg/ml, 10 mg/ml LLC, 400 mM Citrate pH 3.5, 150 mM NaCl], time point 5 min, Average): 417 ng/mL
- AUC(0-t) (rat, plasma, other: intra-duodenal injection (ID), 3 mg, ID 0.3 ml A [10 mg/ml in PBS], Average (PK value of the mean concentrations), read-out: AUC0-90 (converted)): 6.73 ng·h/mL
- Cmax (rat, plasma, other: intra-duodenal injection (ID), 3 mg, ID 0.3 ml A [10 mg/ml in PBS], Average (PK value of the mean concentrations), read-out: Cmax): 5.7 ng/mL
- Half-Life (rat, plasma, other: intra-duodenal injection (ID), 3 mg, ID 0.3 ml A [10 mg/ml in PBS], Average (PK value of the mean concentrations), read-out: Half-Life): 155 min

From patent US20150246093A1, “ORAL FORMULATIONS OF ANGIOTENSIN” (TARIX PHARMACEUTICALS LTD., priority 2012, published 2015)
